Assay results: patent publication EP4603105A1, “PHARMACEUTICAL COMPOSITION CONTAINING CYCLIC COMPOUND HAVING SELECTIVE KRAS INHIBITORY EFFECT AGAINST HRAS AND NRAS” (CHUGAI SEIYAKU KABUSHIKI KAISHA, priority 2022, dated 2024)
Where a SMILES comes first, the peptide text is derived from it. Bridges are numbered along the chain shown (N, C = ends). [ ]: non-standard residue; d: D form. The star is where a group is joined. hPhe(3-Cl-4-CF3) = N[C@@H](CCc1ccc(C(F)(F)F)c(Cl)c1)C(=O)O; NPrPhe(4-CF3) = CCCN[C@@H](Cc1ccc(C(F)(F)F)cc1)C(=O)O; NMeGly(cPent) = CN[C@H](C(=O)O)C1CCCC1; Pro(4,4-Me2) = CC1(C)CN[C@H](C(=O)O)C1; NMeD = CN[C@@H](CC(=O)O)C(=O)O; NMeL = CN[C@@H](CC(C)C)C(=O)O; Morpholide = C1CN(*)CCO1; Ac5c = NC1(C(=O)O)CCCC1; Aze = O=C(O)[C@@H]1CCN1; Sar = CNCC(=O)O

What was measured:
[1] = molecular target: GDP-bound NRAS wild-type protein (Homo sapiens, UniProt P01111); assay: Binding to NRAS by surface plasmon resonance (SPR), KD and KD ratio to KRAS
In short: (§1)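 Each cycle, GDP-bound biotin-Avi RAS was captured (~100–300 RU), compound concentrations were injected low to high for 75 s each at 100 µL/min, then the chip was regenerated. Buffer: HBS pH 7.4, 10 mM MgCl2, 10 µM GDP, 1 mM DTT, 4% DMSO; 30°C. KD from a 1:1 binding model.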

[2] = molecular target: GDP-bound KRAS wild-type protein (Homo sapiens, UniProt P01116); assay: Binding to KRAS by surface plasmon resonance (SPR), dissociation constant KD
In short: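 SPR, 30°C: Avi-biotin RAS·GDP captured via Biotin CAPture (~100–300 RU); running buffer HBS pH 7.4, 1 mM DTT, 10 mM MgCl2, 0.01% Tween 20, 10 µM GDP, 4% DMSO. Single-cycle kinetics, 100 µL/min, 75 s injections; 1:1 model → KD.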

HRAS wild-type protein = HRAS wild-type protein (Homo sapiens, UniProt P01112); assay: Binding to HRAS by surface plasmon resonance (SPR), KD and KD ratio to KRAS
In short: as §1

[3] = system: human lung cancer strain NCI-H441; type: cell-based
In short: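 Signal came from […] measured per well once the reagent was added. Beforehand, cells were cultured at 37°C and 5% carbon dioxide on a compound series serially diluted in dimethyl sulfoxide.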

[4] = ratio of KD value for GDP-bound NRAS wild-type protein to KD value for KRAS (SPR)
[5] = Single Cycle Kinetics, 1:1 binding model
[6] = ratio of KD value for HRAS wild-type protein to KD value for KRAS (SPR)
[7] = ratio of KD for GDP-bound NRAS wild-type protein to KD for KRAS
[8] = ratio of KD for HRAS wild-type protein to KD for KRAS
[9] = ratio of the KD value with respect to GDP-bound NRAS wild-type protein to the KD value with respect to KRAS
[10] = ratio of the KD value with respect to HRAS wild-type protein to the KD value with respect to KRAS

Sequence of HRAS wild-type protein (P01112 whole entry): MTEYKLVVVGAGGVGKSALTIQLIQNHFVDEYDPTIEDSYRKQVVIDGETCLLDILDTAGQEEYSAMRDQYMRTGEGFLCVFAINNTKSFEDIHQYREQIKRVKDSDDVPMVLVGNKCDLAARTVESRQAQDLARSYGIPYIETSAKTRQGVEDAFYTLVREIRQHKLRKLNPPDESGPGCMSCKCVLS
Sequence of GDP-bound KRAS wild-type protein (P01116 1-188 isoform P01116-2): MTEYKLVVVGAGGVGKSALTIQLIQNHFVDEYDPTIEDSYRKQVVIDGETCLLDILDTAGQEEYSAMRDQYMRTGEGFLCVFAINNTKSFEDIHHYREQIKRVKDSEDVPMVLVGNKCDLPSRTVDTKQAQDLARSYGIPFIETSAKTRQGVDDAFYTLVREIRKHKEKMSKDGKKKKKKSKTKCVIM
Sequence of GDP-bound NRAS wild-type protein (P01111 whole entry): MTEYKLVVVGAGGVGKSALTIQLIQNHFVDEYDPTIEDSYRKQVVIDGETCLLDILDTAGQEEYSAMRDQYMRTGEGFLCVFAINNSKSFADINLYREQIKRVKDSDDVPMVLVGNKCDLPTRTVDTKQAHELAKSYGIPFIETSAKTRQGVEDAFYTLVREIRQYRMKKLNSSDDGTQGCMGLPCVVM

SMILES | NRAS /KRAS [1, 4] | Kd [2, 5] [nM] | HRAS /KRAS (HRAS wild-type protein; [6]) | IC50 [3] [nM] | NRAS /KRAS [1, 7] | Kd ([2]; 1:1 binding model) [nM] | HRAS /KRAS (HRAS wild-type protein; [8]) | NRAS /KRAS [1, 9] | HRAS /KRAS (HRAS wild-type protein; [10]) | Kd ([2]; Single Cycle Kinetics) [nM]
CCO[C@@H]1C[C@H]2C(=O)NC3(CCC3)C(=O)N(C)[C@@H](C3CCCC3)C(=O)N(C)[C@H](C(=O)N(CC)CC)CC(=O)N(C)[C@@H](CC(C)C)C(=O)N[C@@H]([C@@H](C)CC)C(=O)N(C)CC(=O)N(C)[C@H]3C/C=C\CCN(C3=O)[C@@H](Cc3ccc(C)cc3)C(=O)N(C)CC(=O)N[C@@H](CCc3ccc(C(F)(F)F)c(OC)c3)C(=O)N2C1 [PP1851] | A (a compound having 10 or more and less than 20 is denoted as A) | 1.8 | A (a compound having 10 or more and less than 20 is denoted as A) | 165 | – | – | – | – | – | –
CCC[C@H]1C(=O)N[C@@H](C2CCCC2)C(=O)N(C)CC(=O)N(C)[C@H]2C/C=C\CCN(C2=O)[C@@H](Cc2ccc(C)cc2)C(=O)N(C)CC(=O)N[C@@H](CCc2cc(F)c(C(F)(F)F)c(F)c2)C(=O)N2C[C@H](OCC)C[C@H]2C(=O)NC2(CC(C)(C)C2)C(=O)N(C)[C@@H](C2CCCC2)C(=O)N(C)[C@H](C(=O)N(C)C)CC(=O)N1C [PP2988] | – | – | – | 8.1 | B (a compound having 3 or more and less than 10 is denoted as B) | 0.29 | B (a compound having 3 or more and less than 10 is denoted as B) | – | – | –
CCO[C@@H]1C[C@H]2C(=O)NC3(CC(C)(C)C3)C(=O)N(C)[C@@H](C(CC)CC)C(=O)N(C)[C@H](C(=O)N(C)C)CC(=O)N(C)[C@@H](CC(C)C)C(=O)N[C@@H]([C@@H](C)CC)C(=O)N(C)CC(=O)N(C)[C@H]3C/C=C\CCN(C3=O)[C@@H](Cc3ccc(C)cc3)C(=O)N(C)CC(=O)N[C@@H](CCc3cc(F)c(C(F)(F)F)c(F)c3)C(=O)N2C1 [PP2141] | – | 0.17 | – | 9.4 | – | – | – | A (a compound having 10 or more and less than 20 is denoted as A) | A (a compound having 10 or more and less than 20 is denoted as A) | –
CC[C@H](C)[C@@H]1NC(=O)[C@H](CC2CC2)N(C)C(=O)C[C@@H](C(=O)N(C)C)N(C)C(=O)[C@H](C2CCCC2)N(C)C(=O)C2(CC(C)(C)C2)NC(=O)[C@@H]2C[C@@H](C)CN2C(=O)[C@H](CCc2ccc(C(F)(F)F)c(OC)c2)NC(=O)CN(C)C(=O)[C@H](Cc2ccc(C)cc2)N2CC/C=C\C[C@@H](C2=O)N(C)C(=O)CN(C)C1=O [PP1901] | – | 0.098 | – | 7.6 | – | – | – | A (a compound having 10 or more and less than 20 is denoted as A) | B (a compound having 3 or more and less than 10 is denoted as B) | –
CCCOC[C@H]1C(=O)N[C@@H]([C@@H](C)CC)C(=O)N(C)CC(=O)N(C)[C@H]2C/C=C\CCN(C2=O)[C@@H](Cc2ccc(C)cc2)C(=O)N(C)CC(=O)N[C@@H](CCc2cc(F)c(C(F)(F)F)c(F)c2)C(=O)N2C[C@H](OCC)C[C@H]2C(=O)NC2(CC(C)(C)C2)C(=O)N(C)[C@@H](C2CCCC2)C(=O)N(C)[C@H](C(=O)N(CC)CC)CC(=O)N1C [PP1578] | A (a compound having 10 or more and less than 20 is denoted as A) | 0.2 | A (a compound having 10 or more and less than 20 is denoted as A) | 12.6 | – | – | – | – | – | –
CCCN(C)C(=O)[C@@H]1CC(=O)N(C)[C@@H](C2CCC2)C(=O)N[C@@H]([C@@H](C)CC)C(=O)N(C)CC(=O)N(C)[C@H]2C/C=C\CCN(C2=O)[C@@H](Cc2ccc(C(F)(F)F)cc2)C(=O)N(C)CC(=O)N[C@@H](CCc2cc(F)c(C(F)(F)F)c(F)c2)C(=O)N2C[C@H](OCC)C[C@H]2C(=O)NC2(CCC2)C(=O)N(C)[C@@H](C2CCCC2)C(=O)N1C [PP1998] | – | 0.17 | – | 16.1 | – | – | – | A (a compound having 10 or more and less than 20 is denoted as A) | B (a compound having 3 or more and less than 10 is denoted as B) | –
CC[C@H](C)[C@@H]1NC(=O)[C@H](CC(C)C)N(C)C(=O)C[C@@H](C(=O)N2CCOCC2)N(C)C(=O)[C@H](C2CCCC2)N(C)C(=O)C2(CCCC2)NC(=O)[C@@H]2CCCN2C(=O)[C@H](CCc2ccc(C(F)(F)F)c(Cl)c2)NC(=O)CN(C)C(=O)[C@H](Cc2ccc(F)cc2)N2CCCC[C@@H](C2=O)N(C)C(=O)CN(C)C1=O [PP0530] | – | 0.06 | – | 7 | – | – | – | C (A compound having a KD ratio of 0.1 or more and less than 3 is denoted as C) | B (a compound having 3 or more and less than 10 is denoted as B) | –
CC[C@H](C)[C@@H]1NC(=O)[C@H](CC2CC2)N(C)C(=O)C[C@@H](C(=O)N(C)CC)N(C)C(=O)[C@H](C2CCCC2)N(C)C(=O)C2(CC(C)(C)C2)NC(=O)[C@@H]2C[C@@H](F)CN2C(=O)[C@H](CCc2cc(F)c(C(F)(F)F)c(F)c2)NC(=O)CN(C)C(=O)[C@H](Cc2ccc(C)cc2)N2CC/C=C\C[C@@H](C2=O)N(C)C(=O)CN(C)C1=O [PP2802] | – | – | – | 5.5 | AA (a compound having 20 or more is denoted as AA) | 0.034 | A (a compound having 10 or more and less than 20 is denoted as A) | – | – | –
CC[C@H](C)[C@@H]1NC(=O)[C@H](Cc2cccc(F)c2)N(C)C(=O)C[C@@H](C(=O)N2CCOCC2)N(C)C(=O)[C@H](C2CCCC2)N(C)C(=O)C2(CCCC2)NC(=O)[C@@H]2CCCN2C(=O)[C@H](CCc2ccc(C(F)(F)F)c(Cl)c2)NC(=O)CN(C)C(=O)[C@H](Cc2ccc(F)cc2)N2CCCCC[C@@H](C2=O)N(C)C(=O)CN(C)C1=O [PP0962] | – | – | – | 83.9 | B (a compound having 3 or more and less than 10 is denoted as B) | – | B (a compound having 3 or more and less than 10 is denoted as B) | – | – | 0.65
CCCN1C(=O)CN(C)C(=O)[C@@H]2CCN2C(=O)[C@H]([C@@H](C)CC)NC(=O)[C@H](CC(C)C)N(C)C(=O)C[C@@H](C(=O)N2CCOCC2)N(C)C(=O)[C@H](C2CCCC2)N(C)C(=O)C2(CCCC2)NC(=O)[C@@H]2CC(C)(C)CN2C(=O)[C@H](CCc2ccc(C(F)(F)F)c(Cl)c2)NC(=O)CN(C)C(=O)[C@@H]1Cc1ccc(C(F)(F)F)cc1 [PP0452] ([NMeL]I[Aze][Sar][NPrPhe(4-CF3)][Sar][hPhe(3-Cl-4-CF3)][Pro(4,4-Me2)][Ac5c][NMeGly(cPent)][NMeD]-Morpholide; lactam N-11) | – | 0.73 | – | 34.1 | – | – | – | B (a compound having 3 or more and less than 10 is denoted as B) | B (a compound having 3 or more and less than 10 is denoted as B) | –
CCO[C@@H]1C[C@H]2C(=O)NC3(CC(C)(C)C3)C(=O)N(C)[C@@H](C3CCCC3)C(=O)N(C)[C@H](C(=O)N(C)C)CC(=O)N(C)[C@@H]([C@@H](C)OC)C(=O)N[C@@H]([C@@H](C)CC)C(=O)N3CCC[C@H]3C(=O)N(C)[C@H]3C/C=C\CCN(C3=O)[C@@H](Cc3ccc(C(F)(F)F)cc3)C(=O)N(C)CC(=O)N[C@@H](CCc3ccc(C(F)(F)F)c(Cl)c3)C(=O)N2C1 [PP3206] | – | – | – | 19.2 | A (a compound having 10 or more and less than 20 is denoted as A) | 0.43 | A (a compound having 10 or more and less than 20 is denoted as A) | – | – | –
